Reference: article PMC5538589, “Discovery of Novel Allopurinol Derivatives with Anticancer Activity and Attenuated Xanthine Oxidase Inhibition” (Molecules, 2016)
Like-named read-outs stand apart in the source and are kept apart here.

Assays:
MDA-MB-231 cells = assay: Cell survival/growth assay (Coulter cell count), MDA-MB-231 cells; type: cell-based; settings: 5 days, treated/vehicle cell number ratio; for viability at 10 µM / viability at 1 µM: Homo sapiens, 120 h; for viability at 10 µM: read-out: Survival Rate (%) 10 μM; for viability at 1 µM: read-out: Survival Rate (%) 1 μM;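 as to all read-outs here: cells grown in DMEM with 5% FBS, vehicle control was an equal volume of DMSO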
SMMC-7221 [1] = assay: MTT cell viability assay, human hepatoma carcinoma SMMC-7221 cells; type: cell-based; settings: read-out: IC50 SMMC-7221
BEL-7402 [2] = assay: MTT cell viability assay, human hepatoma carcinoma BEL-7402 cells; type: cell-based; settings: 24 h treatment, concentration inhibiting cancer cell replication by 50%, tested up to 100 μM
MCF-10A cells [3] = assay: Cytotoxicity towards normal MCF-10A mammary epithelial cells (Cell Titer-Glo); settings: human, MCF-10A normal mammary epithelial cells
[4] = test system: normal cells versus tumor types; set-up: method as in PMID 12213470, PMID 15217612; settings: normal cells more resistant to anti-cancer effects; cited from earlier work
BEL-7402 [5] = test system: BEL-7402; set-up: method as in PMID 23851116; settings: value from earlier study; cited from earlier work
SMMC-7221 [6] = test system: SMMC-7221; set-up: method as in PMID 23851116; settings: value from earlier study; cited from earlier work
xanthine oxidase (XOD) = xanthine oxidase (XOD) (Bos taurus, UniProt P80457); settings: test concentrations 5, 10, 15, 25 μM; allopurinol positive control
MCF-10A cells [7] = assay: in vitro; settings: human
[8] = SMMC-7221, MTT, 24 h treatment, concentration inhibiting cancer cell replication by 50%, tested up to 100 μM

Sequence of xanthine oxidase (XOD) (P80457 2-1332 limits assumed): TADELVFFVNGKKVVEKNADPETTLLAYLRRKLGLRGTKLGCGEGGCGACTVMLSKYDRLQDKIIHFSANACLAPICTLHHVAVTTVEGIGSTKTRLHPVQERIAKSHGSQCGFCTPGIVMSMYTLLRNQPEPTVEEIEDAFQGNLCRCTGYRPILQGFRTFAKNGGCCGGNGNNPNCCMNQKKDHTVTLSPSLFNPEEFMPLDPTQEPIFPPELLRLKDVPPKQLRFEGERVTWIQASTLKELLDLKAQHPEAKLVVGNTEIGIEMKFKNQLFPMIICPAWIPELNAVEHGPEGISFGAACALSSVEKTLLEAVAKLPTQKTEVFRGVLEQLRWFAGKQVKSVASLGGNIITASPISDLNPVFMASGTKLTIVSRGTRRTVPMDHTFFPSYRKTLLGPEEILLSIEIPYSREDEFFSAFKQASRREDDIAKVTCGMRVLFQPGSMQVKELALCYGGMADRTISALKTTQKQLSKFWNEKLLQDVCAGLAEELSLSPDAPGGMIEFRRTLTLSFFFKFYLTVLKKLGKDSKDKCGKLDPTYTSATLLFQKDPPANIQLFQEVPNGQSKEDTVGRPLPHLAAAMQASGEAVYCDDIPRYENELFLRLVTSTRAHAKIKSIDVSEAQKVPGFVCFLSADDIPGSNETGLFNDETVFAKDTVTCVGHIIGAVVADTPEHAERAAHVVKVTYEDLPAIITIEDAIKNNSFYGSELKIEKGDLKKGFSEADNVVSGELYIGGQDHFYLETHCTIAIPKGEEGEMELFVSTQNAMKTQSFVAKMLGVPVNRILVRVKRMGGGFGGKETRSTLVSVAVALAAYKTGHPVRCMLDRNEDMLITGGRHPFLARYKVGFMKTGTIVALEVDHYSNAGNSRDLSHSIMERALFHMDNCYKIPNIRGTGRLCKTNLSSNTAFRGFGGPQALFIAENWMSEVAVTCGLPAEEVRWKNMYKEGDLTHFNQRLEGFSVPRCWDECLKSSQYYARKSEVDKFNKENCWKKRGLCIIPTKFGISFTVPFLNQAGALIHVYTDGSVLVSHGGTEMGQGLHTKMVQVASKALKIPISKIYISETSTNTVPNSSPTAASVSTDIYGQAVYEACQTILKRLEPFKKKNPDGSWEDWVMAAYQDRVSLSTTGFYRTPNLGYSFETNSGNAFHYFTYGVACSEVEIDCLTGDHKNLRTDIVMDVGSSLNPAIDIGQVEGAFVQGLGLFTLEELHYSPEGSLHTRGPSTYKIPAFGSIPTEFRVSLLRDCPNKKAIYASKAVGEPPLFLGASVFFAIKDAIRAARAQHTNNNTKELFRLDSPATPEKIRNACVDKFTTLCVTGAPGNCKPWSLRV

Structure (SMILES)	IC50 (SMMC-7221 [1]; [8]) [µM]	IC50 (BEL-7402 [2]) [µM]	melting point [°C]	viability at 10 µM (MDA-MB-231 cells; MDA-MB-231, 10 μM) [%]	viability at 1 µM (MDA-MB-231 cells; MDA-MB-231, 1 μM) [%]	other results
Clc1ncnc2c1cnn2Cc1ccccc1 [Compound 6, 1-Benzyl-4-chloro-1H-pyrazolo[3,4-d]pyrimidine]	> 100	> 100	62 to 63	75.7 ± 1.5	77.6 ± 9.1	
CCn1ncc2c(NNC(C)=O)ncnc21 [Compound 5e, N′-(1-Ethyl-1H-pyrazolo[3,4-d]pyrimidin-4-yl)acetohydrazide]	> 100	> 100		61.3 ± 1	94.8 ± 0.5	IC50 at 72 h (MCF-10A cells [3]): 20.2 ± 0.81 µM
CCn1ncc2c(Cl)ncnc21 [Compound 3, 4-Chloro-1-ethyl-1H-pyrazolo[3,4-d]pyrimidine]	> 100	> 100	76 to 77	67 ± 4.8	86.2 ± 8.6	
NCCNc1ncnc2c1cnn2Cc1ccccc1 [Compound 7, N1-(1-Benzyl-1H/-pyrazolo[3,4-d]pyrimidin-4-yl)ethane-1,2-diamine]	> 100	> 100		57.5 ± 1	81.4 ± 7.2	
C#CCCCn1c(Cc2cc(OC)c(OC)c(OC)c2Cl)nc2c(N)nc(F)nc21 [PU24FCl]						Resistance of normal cells relative to tumor cells [4]: 10- to 50 fold
CCn1ncc2c(NN)ncnc21 [Compound 4, 1-Ethyl-4-hydrazinyl-1H-pyrazolo[3,4-d]pyrimidine]		25.5 ± 0.4		27.8	66.1	Survival Rate (%) 1 μM (MDA-MB-231 cells; MDA-MB-231, 1 μM): 66.1 ± 0.5%; Survival Rate (%) 10 μM (MDA-MB-231 cells; MDA-MB-231, 10 μM): 27.8 ± 2.4%; IC50 (SMMC-7221 [1]; SMMC-7221, 24 h): 35.2 ± 0.4 µM; IC50 at 72 h (MCF-10A cells [3]): 17.4 ± 0.69 µM
CCn1ncc2c(NNC(=O)CCl)ncnc21 [Compound 5g, 2-Chloro-N′-(1-ethyl-1H-pyrazolo[3,4-d]pyrimidin-4-yl)acetohydrazide]	> 100	> 100	202 to 204	105 ± 2.9	105 ± 4.8	IC50 at 72 h (MCF-10A cells [3]): 23.3 ± 0.71 µM
CCOC(=O)Cn1ncc2c(Nc3ccc(NC(=O)CCl)cc3)ncnc21 [Compound 1]				1 ± 0.6	40.2 ± 3.9	IC50 (BEL-7402 [5]): 18.7 µM; IC50 (SMMC-7221 [6]): 9.03 µM; IC50 at 72 h (MCF-10A cells [3]): 5.59 ± 0.27 µM
Oc1ncnc2[nH]ncc12 [allopurinol, 4-hydroxyl-1H-pyrazolo[3,4-d]pyrimidine]				51.7 ± 6.7	84.3 ± 7.7	XOD inhibitory activity (in words) (xanthine oxidase (XOD)): strong inhibitor of XOD
C=CCNC1=C2C[C@@H](C)C[C@H](OC)[C@H](O)[C@@H](C)/C=C(\C)[C@H](OC(N)=O)[C@@H](OC)/C=C\C=C(/C)C(=O)NC(=CC1=O)C2=O [Compound 17-AAG, 17-N-allylamino-17-demethoxy geldanamycin, reference compound]	9.85 ± 0.08	12.4 ± 0.1		4.8 ± 0.5	6.7 ± 0.5	IC50 at 72 h (MCF-10A cells [7]): 0.09 ± 0.01 µM

Second part, led by results:

IC50 (SMMC-7221 [1]; [8]) [µM]	IC50 (BEL-7402 [2]) [µM]	melting point [°C]	Structure (SMILES)	viability at 10 µM (MDA-MB-231 cells; MDA-MB-231, 10 μM) [%]	viability at 1 µM (MDA-MB-231 cells; MDA-MB-231, 1 μM) [%]	other results
> 100	66.61 ± 0.62		O=S(=O)(NCCNc1ncnc2c1cnn2Cc1ccccc1)c1ccccc1 [Compound 8a, N-(2-((1-Benzyl-1H-pyrazolo[3,4-d]pyrimidin-4-yl)amino)ethyl)benzenesulfonamide]	58.4 ± 2.4		
> 100	> 100	194 to 195	CCn1ncc2c(NNS(=O)(=O)c3ccc([N+](=O)[O-])cc3)ncnc21 [Compound 5b, N′-(1-Ethyl-1H-pyrazolo[3,4-d]pyrimidin-4-yl)-4-nitrobenzenesulfonohydrazide]	68 ± 2.4	92.9 ± 1.5	
81.46 ± 0.78	> 100		O=[N+]([O-])c1ccc(S(=O)(=O)NCCNc2ncnc3c2cnn3Cc2ccccc2)cc1 [Compound 8b, N-(2-((1-Benzyl-1H-pyrazolo[3,4-d]pyrimidin-4-yl)amino)ethyl)-4-nitrobenzenesulfonamide]	71.8 ± 8.5	75.7 ± 2.4	
> 100	> 100	186 to 187	CCn1ncc2c(NNS(=O)(=O)c3ccc(C)cc3)ncnc21 [Compound 5a, N′-(1-Ethyl-1H-pyrazolo[3,4-d]pyrimidin-4-yl)-4-methylbenzenesulfonohydrazide]	72.8 ± 3.9	89.1 ± 1.5	
> 100	> 100	144 to 146	CCn1ncc2c(N(NC(=O)c3ccccc3)C(=O)c3ccccc3)ncnc21 [Compound 5f, N′-Benzoyl-N′-(1-ethyl-1H-pyrazolo[3,4-d]pyrimidin-4-yl)benzohydrazide]	88.1 ± 1	102 ± 11	
> 100	> 100		O=S(=O)(NCCNc1ncnc2c1cnn2Cc1ccccc1)c1ccc(Br)cc1 [Compound 8c, N-(2-((1-benzyl-1H-pyrazolo[3,4-d]pyrimidin-4-yl)amino)ethyl)-4-bromobenzenesulfonamide]	78.5 ± 3.9	105 ± 8.6	
> 100	> 100	194 to 195	CCn1ncc2c(NNS(=O)(=O)c3ccc(Br)cc3)ncnc21 [Compound 5d, 4-Bromo-N′-(1-ethyl-1H-pyrazolo[3,4-d]pyrimidin-4-yl)benzenesulfonohydrazide]	70.9 ± 1	80.5 ± 2	
> 100	> 100	194 to 195	CCn1ncc2c(NNS(=O)(=O)c3ccccc3)ncnc21 [Compound 5c, N′-(1-Ethyl-1H-pyrazolo[3,4-d]pyrimidin-4-yl)benzenesulfonohydrazide]	74.7 ± 0.1	75.7 ± 11	
